The target of assay [1] is Serine/threonine-protein kinase MRCK beta (Homo sapiens) (UniProt Q9Y5S2). The assay is described as follows: Inhibition of recombinant human MRCKbeta (1 to 473 residues) assessed as residual activity at 10 uM using KKRNRTLTV as substrate incubated for 40 mins in presence of [gamma-33ATP by scintillation counting based radiometry assay relative to control.
The species named for a further assay is Homo sapiens. The assay can be described thus: Inhibition of recombinant human MER H628Q/R794A mutant (557 to 882 residues) assessed as residual activity at 10 uM using KKLNRTLSFAEPG as substrate incubated for 40 mins in presence of [gamma-33ATP by scintillation counting based radiometry assay relative to control.
Assay [2] deals with Mitogen-activated protein kinase kinase kinase kinase 2 (Homo sapiens) (UniProt Q12851). The assay can be described thus: Inhibition of recombinant human GCK (1 to 473 residues) assessed as residual activity at 10 uM using myelin basic protein as substrate at 40 mins in presence of [gamma-33ATP] by scintillation counting based radiometry assay relative to control.
Assay [3] relates to Proto-oncogene tyrosine-protein kinase receptor Ret (Homo sapiens), P07949 [V804M]. The assay can be described thus: Inhibition of recombinant human Ret V804M mutant (658 to end residues) assessed as residual activity at 10 uM using KKKVSRSGLYRSPSMPENLNRPR as substrate incubated for 40 mins in presence of [gamma33P]ATP by scintillation counting based radiometry assay relative to control.

For assay [4], the target named is Protein kinase C zeta type (Homo sapiens) (UniProt Q05513). The assay is described as follows: Inhibition of recombinant human PKCzeta (2 to end residues) assessed as residual activity at 10 uM using ERMRPRKRQGSVRRRV as substrate incubated for 40 mins in presence of [gamma33P]ATP by scintillation counting based radiometry assay relative to control.
Assay [5] concerns the target Mitogen-activated protein kinase 10 (Homo sapiens) (UniProt P53779). The assay can be described thus: Inhibition of human JNK3 assessed as residual activity at 10 uM using peptide as substrate after 40 mins by [gamma-33ATP] radiometric assay relative to control.
Assay [6] has as its target Phosphorylase b kinase gamma catalytic chain, skeletal muscle/heart isoform (Homo sapiens) (UniProt Q16816). The assay is described as follows: Inhibition of recombinant full-length human PhKgamma1 assessed as residual activity at 10 uM using KKLNRTLSFAEPG as substrate incubated for 40 mins in presence of [gamma33P]ATP by scintillation counting based radiometry assay relative to control.

In assay [7] the target is Serine/threonine-protein kinase D2 (Homo sapiens) (UniProt Q9BZL6). The assay can be described thus: Inhibition of recombinant full-length human PKD2 assessed as residual activity at 10 uM using KKLNRTLSVA as substrate incubated for 40 mins in presence of [gamma33P]ATP by scintillation counting based radiometry assay relative to control.
Assay [8] concerns the target Platelet-derived growth factor receptor beta (Homo sapiens) (UniProt P09619). The assay can be described thus: Inhibition of human PDGFRbeta (557 to end residues) assessed as residual activity at 10 uM using poly(Glu, Tyr) 4:1 as substrate measured after 40 mins in presence of [gamma33P]ATP by scintillation counting based radiometry assay relative to control.
In assay [9] the test system is Serine/threonine-protein kinase Chk2 (Homo sapiens), O96017 [R145W]. The assay is described as follows: Inhibition of recombinant human CHK2 R145W mutant (5 to end residues) assessed as residual activity at 10 uM using KKKVSRSGLYRSPSMPENLNRPR as substrate incubated for 40 mins in presence of [gamma-33ATP] by scintillation counting based radiometry assay relative to control.

Assay [10] addresses Muscle, skeletal receptor tyrosine-protein kinase (Homo sapiens) (UniProt O15146). The assay can be described thus: Inhibition of recombinant human MUSK (530 to end residues) assessed as residual activity at 10 uM using myelin basic protein as substrate measured after 40 mins in presence of [gamma33P]ATP by scintillation counting based radiometry assay relative to control.
The target of assay [11] is BDNF/NT-3 growth factors receptor (Homo sapiens) (UniProt Q16620). The assay can be described thus: Inhibition of recombinant human TRKB (455 to end residues) assessed as residual activity at 10 uM using poly(Glu, Tyr) 4:1 as substrate incubated for 40 mins in presence of [gamma33P]ATP by scintillation counting based radiometry assay relative to control.
For assay [12], the system named is Angiopoietin-1 receptor (Homo sapiens), Q02763 [Q939H,Q940H,Y897S]. The assay can be described thus: Inhibition of recombinant human TIE2 Q939H/Q940H/Y897S mutant (771 to end residues) assessed as residual activity at 10 uM using EFPIYDFLPAKKK as substrate incubated for 40 mins in presence of [gamma33P]ATP by scintillation counting based radiometry assay relative to control.

Assay [13] concerns the target Tyrosine-protein kinase TXK (Homo sapiens) (UniProt P42681). The assay can be described thus: Inhibition of recombinant human Txk (256 to end residues) assessed as residual activity at 10 uM using GEEPLYWSFPAKKK as substrate incubated for 40 mins in presence of [gamma33P]ATP by scintillation counting based radiometry assay relative to control.
Assay [14] deals with Serine/threonine-protein kinase ULK1 (Homo sapiens) (UniProt O75385). The assay is described as follows: Inhibition of recombinant human ULK1 (1 to 314 residues) assessed as residual activity at 10 uM using casein as substrate incubated for 40 mins in presence of [gamma33P]ATP by scintillation counting based radiometry assay relative to control.
In assay [15] the test system is Glycogen synthase kinase-3 beta (Homo sapiens), P49841 [UNDEFINED MUTATION]. The assay can be described thus: Inhibition of human GSK-3beta H350L mutant (2 to end residues) assessed as residual activity at 10 uM using phospho GS2 peptide as substrate after 40 mins by [gamma-33ATP] radiometric assay relative to control.
The target in assay [16] is Serine/threonine-protein kinase Nek9 (Homo sapiens) (UniProt Q8TD19). The assay can be described thus: Inhibition of recombinant human NEK9 (1 to 324 residues) assessed as residual activity at 10 uM using myelin basic protein as substrate measured after 40 mins in presence of [gamma33P]ATP by scintillation counting based radiometry assay relative to control.
In assay [17] the target is Homeodomain-interacting protein kinase 3 (Homo sapiens) (UniProt Q9H422). The assay can be described thus: Inhibition of human HIPK3 (161 to 562 residues) assessed as residual activity at 10 uM using myelin basic protein as substrate after 40 mins by [gamma-33ATP] radiometric assay relative to control.
Assay [18] concerns the target Misshapen-like kinase 1 (Homo sapiens) (UniProt Q8N4C8). The assay is described as follows: Inhibition of recombinant human MINK (1 to 320 residues) assessed as residual activity at 10 uM using myelin basic protein as substrate incubated for 40 mins in presence of [gamma-33ATP by scintillation counting based radiometry assay relative to control.
The target in assay [19] is Casein kinase I isoform delta (Homo sapiens) (UniProt P48730). The assay can be described thus: Inhibition of recombinant human CK1delta (1 to 294 residues) assessed as residual activity at 10 uM using KRRRALS(p)VASLPGL as substrate incubated for 40 mins in presence of [gamma-33ATP] by scintillation counting based radiometry assay relative to control.
Assay [20] addresses Mitogen-activated protein kinase kinase kinase kinase 1 (Homo sapiens) (UniProt Q92918). The assay can be described thus: Inhibition of human HPK1 (1 to 346 residues) assessed as residual activity at 10 uM using myelin basic protein as substrate after 40 mins by [gamma-33ATP] radiometric assay relative to control.

Chain of Protein kinase C zeta type (Homo sapiens) (Q05513 whole entry): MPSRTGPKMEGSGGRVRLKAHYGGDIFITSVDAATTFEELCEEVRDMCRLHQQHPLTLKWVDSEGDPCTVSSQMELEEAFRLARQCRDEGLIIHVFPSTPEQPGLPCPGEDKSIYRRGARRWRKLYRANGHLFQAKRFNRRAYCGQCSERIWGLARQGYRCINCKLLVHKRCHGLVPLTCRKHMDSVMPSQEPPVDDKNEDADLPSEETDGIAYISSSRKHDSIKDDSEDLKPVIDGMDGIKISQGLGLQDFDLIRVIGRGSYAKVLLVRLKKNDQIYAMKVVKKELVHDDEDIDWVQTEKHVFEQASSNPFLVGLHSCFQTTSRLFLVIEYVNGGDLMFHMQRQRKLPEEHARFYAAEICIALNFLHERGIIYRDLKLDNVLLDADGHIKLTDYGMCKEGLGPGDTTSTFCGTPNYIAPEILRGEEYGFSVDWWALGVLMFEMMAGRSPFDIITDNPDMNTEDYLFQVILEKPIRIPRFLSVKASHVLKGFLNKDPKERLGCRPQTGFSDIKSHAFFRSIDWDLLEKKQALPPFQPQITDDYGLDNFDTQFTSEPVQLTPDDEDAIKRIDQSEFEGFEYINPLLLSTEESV
Chain of Casein kinase I isoform delta (Homo sapiens) (P48730 whole entry, looked up, the tested form may be a part, canonical isoform): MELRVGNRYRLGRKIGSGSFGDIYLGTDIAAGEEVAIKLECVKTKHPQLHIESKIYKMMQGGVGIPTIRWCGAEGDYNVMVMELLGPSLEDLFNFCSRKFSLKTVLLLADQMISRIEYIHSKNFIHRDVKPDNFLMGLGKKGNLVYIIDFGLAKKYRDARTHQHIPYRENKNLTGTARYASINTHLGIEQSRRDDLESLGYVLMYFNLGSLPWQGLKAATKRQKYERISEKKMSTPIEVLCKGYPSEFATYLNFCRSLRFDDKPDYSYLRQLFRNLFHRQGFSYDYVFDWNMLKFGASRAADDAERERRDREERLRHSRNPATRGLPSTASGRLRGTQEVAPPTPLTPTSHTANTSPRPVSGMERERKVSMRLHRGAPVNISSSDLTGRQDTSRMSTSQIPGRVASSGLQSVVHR
Chain of Phosphorylase b kinase gamma catalytic chain, skeletal muscle/heart isoform (Homo sapiens) (Q16816 whole entry, looked up, canonical isoform): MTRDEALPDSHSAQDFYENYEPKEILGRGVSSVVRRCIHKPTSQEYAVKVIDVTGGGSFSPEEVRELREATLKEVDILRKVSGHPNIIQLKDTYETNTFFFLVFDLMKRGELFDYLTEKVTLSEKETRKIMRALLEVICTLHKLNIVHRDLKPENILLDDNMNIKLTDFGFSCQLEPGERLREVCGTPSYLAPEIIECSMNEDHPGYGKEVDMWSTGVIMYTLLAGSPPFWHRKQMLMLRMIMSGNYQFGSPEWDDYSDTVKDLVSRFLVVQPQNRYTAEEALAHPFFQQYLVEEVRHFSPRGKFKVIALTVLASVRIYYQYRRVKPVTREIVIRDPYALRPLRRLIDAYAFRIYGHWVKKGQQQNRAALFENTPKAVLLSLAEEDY
Chain of Mitogen-activated protein kinase kinase kinase kinase 2 (Homo sapiens) (Q12851 whole entry, the tested form may be a part): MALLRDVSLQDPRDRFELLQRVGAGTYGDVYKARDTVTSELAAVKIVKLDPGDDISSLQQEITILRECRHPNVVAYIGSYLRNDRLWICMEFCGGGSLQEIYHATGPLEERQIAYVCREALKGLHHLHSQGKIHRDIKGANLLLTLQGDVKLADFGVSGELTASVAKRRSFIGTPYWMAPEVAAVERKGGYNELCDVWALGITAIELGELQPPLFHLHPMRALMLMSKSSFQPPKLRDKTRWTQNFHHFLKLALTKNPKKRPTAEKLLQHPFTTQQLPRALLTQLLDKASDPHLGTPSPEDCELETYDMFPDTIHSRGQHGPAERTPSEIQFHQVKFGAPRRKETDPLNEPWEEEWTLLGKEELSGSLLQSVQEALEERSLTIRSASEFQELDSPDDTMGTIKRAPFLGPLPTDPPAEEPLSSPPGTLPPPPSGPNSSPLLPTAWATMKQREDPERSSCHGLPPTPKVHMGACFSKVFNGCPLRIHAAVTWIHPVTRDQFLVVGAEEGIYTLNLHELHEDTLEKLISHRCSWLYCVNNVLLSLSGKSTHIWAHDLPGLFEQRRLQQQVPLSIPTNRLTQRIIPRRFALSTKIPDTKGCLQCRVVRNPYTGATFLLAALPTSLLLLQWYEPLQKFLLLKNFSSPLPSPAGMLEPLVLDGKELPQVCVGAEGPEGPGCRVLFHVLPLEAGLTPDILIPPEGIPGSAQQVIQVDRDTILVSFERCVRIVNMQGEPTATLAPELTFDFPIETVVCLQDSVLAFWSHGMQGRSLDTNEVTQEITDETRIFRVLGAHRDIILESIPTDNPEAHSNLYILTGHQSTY
Chain of Serine/threonine-protein kinase ULK1 (Homo sapiens) (O75385 whole entry, the tested form may be a part): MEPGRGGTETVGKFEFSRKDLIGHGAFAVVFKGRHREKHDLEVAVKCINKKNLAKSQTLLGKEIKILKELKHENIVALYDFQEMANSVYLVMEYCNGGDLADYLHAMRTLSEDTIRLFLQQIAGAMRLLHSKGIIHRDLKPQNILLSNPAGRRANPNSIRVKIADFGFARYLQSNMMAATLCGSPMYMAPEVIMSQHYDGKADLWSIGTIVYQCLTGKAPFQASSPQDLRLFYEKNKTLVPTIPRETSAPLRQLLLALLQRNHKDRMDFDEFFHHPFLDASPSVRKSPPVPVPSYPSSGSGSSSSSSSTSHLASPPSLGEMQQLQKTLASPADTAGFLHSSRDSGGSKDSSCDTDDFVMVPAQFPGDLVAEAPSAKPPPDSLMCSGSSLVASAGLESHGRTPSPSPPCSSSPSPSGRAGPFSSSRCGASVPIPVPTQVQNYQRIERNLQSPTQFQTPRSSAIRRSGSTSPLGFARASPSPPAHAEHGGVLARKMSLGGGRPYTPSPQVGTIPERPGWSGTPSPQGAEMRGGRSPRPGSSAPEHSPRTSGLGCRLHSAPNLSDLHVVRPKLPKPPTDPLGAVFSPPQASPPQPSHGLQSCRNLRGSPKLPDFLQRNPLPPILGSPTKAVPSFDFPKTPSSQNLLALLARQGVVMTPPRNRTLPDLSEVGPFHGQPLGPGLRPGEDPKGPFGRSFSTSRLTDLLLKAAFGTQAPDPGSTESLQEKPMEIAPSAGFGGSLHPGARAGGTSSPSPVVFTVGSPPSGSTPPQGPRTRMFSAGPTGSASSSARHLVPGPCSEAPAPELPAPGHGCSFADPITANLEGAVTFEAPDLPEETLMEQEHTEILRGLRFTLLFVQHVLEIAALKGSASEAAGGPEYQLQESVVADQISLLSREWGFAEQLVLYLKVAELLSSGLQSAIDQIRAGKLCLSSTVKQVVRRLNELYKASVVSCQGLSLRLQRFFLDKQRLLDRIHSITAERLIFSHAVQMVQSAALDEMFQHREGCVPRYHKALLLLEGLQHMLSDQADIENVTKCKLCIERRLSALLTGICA
Chain of Serine/threonine-protein kinase Nek9 (Homo sapiens) (Q8TD19 whole entry, the tested form may be a part): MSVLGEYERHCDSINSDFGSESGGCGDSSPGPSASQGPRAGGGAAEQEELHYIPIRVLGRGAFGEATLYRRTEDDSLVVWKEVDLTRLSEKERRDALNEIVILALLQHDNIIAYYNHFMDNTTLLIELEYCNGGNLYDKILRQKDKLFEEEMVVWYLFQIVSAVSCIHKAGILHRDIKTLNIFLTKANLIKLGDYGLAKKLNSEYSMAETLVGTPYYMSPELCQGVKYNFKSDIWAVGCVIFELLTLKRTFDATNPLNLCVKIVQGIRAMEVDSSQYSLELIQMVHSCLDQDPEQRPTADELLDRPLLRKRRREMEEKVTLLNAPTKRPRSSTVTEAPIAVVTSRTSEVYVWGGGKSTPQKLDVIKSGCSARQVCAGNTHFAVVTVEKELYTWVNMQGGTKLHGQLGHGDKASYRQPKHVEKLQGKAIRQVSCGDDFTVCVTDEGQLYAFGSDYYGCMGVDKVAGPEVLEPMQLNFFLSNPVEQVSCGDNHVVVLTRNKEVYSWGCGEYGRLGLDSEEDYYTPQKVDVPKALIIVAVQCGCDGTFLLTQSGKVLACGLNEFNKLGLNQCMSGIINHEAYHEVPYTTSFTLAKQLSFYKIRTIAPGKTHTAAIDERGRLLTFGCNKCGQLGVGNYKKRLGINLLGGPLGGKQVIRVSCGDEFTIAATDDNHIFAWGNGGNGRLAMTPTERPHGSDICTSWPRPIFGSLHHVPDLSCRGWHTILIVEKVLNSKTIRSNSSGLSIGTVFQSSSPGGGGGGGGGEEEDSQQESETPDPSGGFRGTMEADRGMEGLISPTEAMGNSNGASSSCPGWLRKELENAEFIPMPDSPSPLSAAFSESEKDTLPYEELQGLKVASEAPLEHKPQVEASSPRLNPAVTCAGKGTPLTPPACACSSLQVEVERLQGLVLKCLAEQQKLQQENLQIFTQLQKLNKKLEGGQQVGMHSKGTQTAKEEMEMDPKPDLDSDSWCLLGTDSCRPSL
Chain of Tyrosine-protein kinase TXK (Homo sapiens) (P42681 whole entry, the tested form may be a part): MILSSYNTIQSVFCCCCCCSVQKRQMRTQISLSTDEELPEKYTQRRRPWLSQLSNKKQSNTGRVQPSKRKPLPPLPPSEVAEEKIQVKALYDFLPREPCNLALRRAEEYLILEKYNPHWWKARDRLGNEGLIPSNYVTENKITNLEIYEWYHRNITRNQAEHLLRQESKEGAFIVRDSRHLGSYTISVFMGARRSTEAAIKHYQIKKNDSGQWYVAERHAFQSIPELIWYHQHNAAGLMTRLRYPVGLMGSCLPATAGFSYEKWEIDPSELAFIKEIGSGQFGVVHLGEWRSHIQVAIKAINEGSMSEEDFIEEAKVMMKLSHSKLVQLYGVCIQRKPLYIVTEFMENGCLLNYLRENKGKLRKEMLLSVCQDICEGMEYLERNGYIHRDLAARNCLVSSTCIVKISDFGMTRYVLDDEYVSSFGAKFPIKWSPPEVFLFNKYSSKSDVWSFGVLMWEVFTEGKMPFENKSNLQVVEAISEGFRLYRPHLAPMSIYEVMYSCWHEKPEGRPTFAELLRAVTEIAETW

Take `C[C@@H](c1ccccc1)n1nnc2cnc3ccc(-c4cnc5[nH]ccc5c4)cc3c21`: the Activity was found to be 105% in [1]; 56% in the assay filed under Homo sapiens; 75% in assay [2]; 69% in assay [3]; 84% in assay [4]; 47% in [5]. Also, the Activity in assay [6] came to 70%; in assay [7], 65%; in assay [8], 79%; in [9], 81%; in assay [10] it was 74%; in [11], 2%. Besides, the Activity was 81% in assay [12]; 23% in [13]; 91% in assay [14]; 81% in assay [15]; 97% in [16]; 75% in assay [17]. In addition, the Activity in [18] was found to be 81%; in [19], 23%; in [20] it was 84%.

(Values after ChEMBL document CHEMBL4334471, “Discovery of 1,8-disubstituted-[1,2,3]triazolo[4,5-c]quinoline derivatives as a new class of Hippo signaling pathway inhibitors” (Bioorg Med Chem Lett, 2019).)
